Assay results reported in ChEMBL document CHEMBL4507260 (2021).

Experiments:
Conditions in all cases: Compound concentration 1000.0 nM
[1] = tested on: Tyrosine-protein kinase ABL1 (Homo sapiens), P00519 [F317I]
[2] = biological target: Tyrosine-protein kinase ABL2 (Homo sapiens) (UniProt P42684)
[3] = biological target: Ankyrin repeat and protein kinase domain-containing protein 1 (Homo sapiens) (UniProt Q8NFD2)
[4] = biological target: Bone morphogenetic protein receptor type-1B (Homo sapiens) (UniProt O00238)
[5] = biological target: Cyclin-dependent kinase 11B (Homo sapiens) (UniProt P21127)
[6] = biological target: Cyclin-dependent kinase 4 (Homo sapiens) (UniProt P11802)
[7] = biological target: Cyclin-dependent kinase 5 (Homo sapiens) (UniProt Q00535)
[8] = biological target: Cyclin-dependent kinase-like 1 (Homo sapiens) (UniProt Q00532)
[9] = biological target: Citron Rho-interacting kinase (Homo sapiens) (UniProt O14578)
[10] = biological target: Casein kinase I isoform gamma-1 (Homo sapiens) (UniProt Q9HCP0)
[11] = biological target: Ephrin type-A receptor 2 (Homo sapiens) (UniProt P29317)
[12] = biological target: Mitogen-activated protein kinase 7 (Homo sapiens) (UniProt Q13164)
Sequence of Mitogen-activated protein kinase 7 (Homo sapiens) (Q13164 2-816 limits assumed): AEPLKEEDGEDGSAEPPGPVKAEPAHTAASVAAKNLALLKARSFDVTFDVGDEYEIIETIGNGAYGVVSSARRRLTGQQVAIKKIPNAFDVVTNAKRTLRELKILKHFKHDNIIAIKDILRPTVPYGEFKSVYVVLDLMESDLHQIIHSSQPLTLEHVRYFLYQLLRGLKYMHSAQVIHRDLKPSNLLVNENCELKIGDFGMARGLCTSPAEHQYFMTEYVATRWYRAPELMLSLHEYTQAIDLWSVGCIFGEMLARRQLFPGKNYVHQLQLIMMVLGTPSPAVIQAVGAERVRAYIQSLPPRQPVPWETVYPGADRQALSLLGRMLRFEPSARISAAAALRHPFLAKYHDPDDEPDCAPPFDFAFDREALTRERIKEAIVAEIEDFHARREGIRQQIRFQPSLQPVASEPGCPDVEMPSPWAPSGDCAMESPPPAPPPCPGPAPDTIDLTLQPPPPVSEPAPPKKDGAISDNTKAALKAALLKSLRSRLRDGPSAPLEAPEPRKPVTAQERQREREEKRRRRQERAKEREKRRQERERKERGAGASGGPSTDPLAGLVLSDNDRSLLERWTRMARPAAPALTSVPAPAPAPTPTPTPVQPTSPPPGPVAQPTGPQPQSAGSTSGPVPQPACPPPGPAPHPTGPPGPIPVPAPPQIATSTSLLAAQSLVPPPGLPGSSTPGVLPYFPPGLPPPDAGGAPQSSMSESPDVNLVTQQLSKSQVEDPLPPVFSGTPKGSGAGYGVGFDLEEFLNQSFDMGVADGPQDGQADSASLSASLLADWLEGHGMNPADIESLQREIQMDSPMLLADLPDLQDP

[13] = biological target: Focal adhesion kinase 1 (Homo sapiens) (UniProt Q05397)
[14] = biological target: Fibroblast growth factor receptor 4 (Homo sapiens) (UniProt P22455)
[15] = tested on: Receptor-type tyrosine-protein kinase FLT3 (Homo sapiens), P36888 [UNDEFINED MUTATION]
[16] = biological target: Glycogen synthase kinase-3 alpha (Homo sapiens) (UniProt P49840)
[17] = biological target: Insulin-like growth factor 1 receptor (Homo sapiens) (UniProt P08069)
[18] = biological target: Serine/threonine-protein kinase STK11 (Homo sapiens) (UniProt Q15831)
[19] = biological target: MAP/microtubule affinity-regulating kinase 3 (Homo sapiens) (UniProt P27448)
[20] = biological target: Dual specificity mitogen-activated protein kinase kinase 2 (Homo sapiens) (UniProt P36507)
[21] = biological target: Hepatocyte growth factor receptor (Homo sapiens) (UniProt P08581)
[22] = biological target: MAP kinase-interacting serine/threonine-protein kinase 1 (Homo sapiens) (UniProt Q9BUB5)
[23] = biological target: Serine/threonine-protein kinase Nek7 (Homo sapiens) (UniProt Q8TDX7)
[24] = biological target: Phosphatidylinositol 4-phosphate 3-kinase C2 domain-containing subunit beta (Homo sapiens) (UniProt O00750)
[25] = biological target: Phosphatidylinositol 3-kinase C2 domain-containing subunit gamma (Homo sapiens) (UniProt O75747)
[26] = tested on: Phosphatidylinositol 4,5-bisphosphate 3-kinase catalytic subunit alpha isoform (Homo sapiens), P42336 [E545K]
Sequence of Phosphatidylinositol 4,5-bisphosphate 3-kinase catalytic subunit alpha isoform (Homo sapiens), P42336 [E545K] (P42336 whole entry E545K, canonical isoform): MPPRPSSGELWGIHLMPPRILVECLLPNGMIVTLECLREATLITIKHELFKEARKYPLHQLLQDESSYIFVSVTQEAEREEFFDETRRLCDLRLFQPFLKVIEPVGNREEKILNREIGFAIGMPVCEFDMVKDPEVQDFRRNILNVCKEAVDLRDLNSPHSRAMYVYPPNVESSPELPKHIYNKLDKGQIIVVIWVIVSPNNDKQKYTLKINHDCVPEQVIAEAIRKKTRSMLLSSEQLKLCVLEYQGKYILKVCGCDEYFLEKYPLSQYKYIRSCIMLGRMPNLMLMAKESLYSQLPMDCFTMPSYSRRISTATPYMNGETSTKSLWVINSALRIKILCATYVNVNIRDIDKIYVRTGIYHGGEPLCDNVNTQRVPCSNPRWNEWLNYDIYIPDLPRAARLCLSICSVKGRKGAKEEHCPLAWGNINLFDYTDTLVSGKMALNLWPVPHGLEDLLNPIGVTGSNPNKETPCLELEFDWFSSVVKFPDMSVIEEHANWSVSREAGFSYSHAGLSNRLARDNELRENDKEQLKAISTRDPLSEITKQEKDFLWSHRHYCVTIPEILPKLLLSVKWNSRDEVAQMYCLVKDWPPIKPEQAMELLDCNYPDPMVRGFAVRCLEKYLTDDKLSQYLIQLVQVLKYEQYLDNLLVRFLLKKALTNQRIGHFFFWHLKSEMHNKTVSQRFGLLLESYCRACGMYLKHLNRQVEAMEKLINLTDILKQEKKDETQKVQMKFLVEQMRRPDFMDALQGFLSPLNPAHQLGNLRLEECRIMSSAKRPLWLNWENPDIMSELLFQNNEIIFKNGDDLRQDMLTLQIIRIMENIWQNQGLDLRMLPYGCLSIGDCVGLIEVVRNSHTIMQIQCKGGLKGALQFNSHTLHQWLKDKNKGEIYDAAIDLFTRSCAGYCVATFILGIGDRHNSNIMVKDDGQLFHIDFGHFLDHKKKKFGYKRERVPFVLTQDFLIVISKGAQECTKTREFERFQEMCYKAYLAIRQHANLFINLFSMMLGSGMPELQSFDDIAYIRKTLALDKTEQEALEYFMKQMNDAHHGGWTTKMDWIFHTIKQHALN

[27] = biological target: Phosphatidylinositol 4,5-bisphosphate 3-kinase catalytic subunit delta isoform (Homo sapiens) (UniProt O00329)
[28] = biological target: Phosphatidylinositol 5-phosphate 4-kinase type-2 beta (Homo sapiens) (UniProt P78356)
Sequence of Phosphatidylinositol 5-phosphate 4-kinase type-2 beta (Homo sapiens) (P78356 whole entry): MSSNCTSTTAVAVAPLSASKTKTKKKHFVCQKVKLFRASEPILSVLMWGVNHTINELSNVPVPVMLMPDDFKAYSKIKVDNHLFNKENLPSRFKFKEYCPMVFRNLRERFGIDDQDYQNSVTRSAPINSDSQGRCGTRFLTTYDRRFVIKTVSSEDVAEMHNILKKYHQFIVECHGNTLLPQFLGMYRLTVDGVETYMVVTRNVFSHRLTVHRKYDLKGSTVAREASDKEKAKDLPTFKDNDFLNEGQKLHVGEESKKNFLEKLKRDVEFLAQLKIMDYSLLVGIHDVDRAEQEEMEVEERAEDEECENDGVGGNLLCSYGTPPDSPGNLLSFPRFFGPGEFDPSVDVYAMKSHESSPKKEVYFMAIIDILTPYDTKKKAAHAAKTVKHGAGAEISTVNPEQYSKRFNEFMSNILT

[29] = biological target: Phosphatidylinositol 5-phosphate 4-kinase type-2 gamma (Homo sapiens) (UniProt Q8TBX8)
[30] = biological target: Protein kinase C theta type (Homo sapiens) (UniProt Q04759)
[31] = biological target: Ribosomal protein S6 kinase alpha-5 (Homo sapiens) (UniProt O75582)
Sequence of Ribosomal protein S6 kinase alpha-5 (Homo sapiens) (O75582 whole entry, looked up): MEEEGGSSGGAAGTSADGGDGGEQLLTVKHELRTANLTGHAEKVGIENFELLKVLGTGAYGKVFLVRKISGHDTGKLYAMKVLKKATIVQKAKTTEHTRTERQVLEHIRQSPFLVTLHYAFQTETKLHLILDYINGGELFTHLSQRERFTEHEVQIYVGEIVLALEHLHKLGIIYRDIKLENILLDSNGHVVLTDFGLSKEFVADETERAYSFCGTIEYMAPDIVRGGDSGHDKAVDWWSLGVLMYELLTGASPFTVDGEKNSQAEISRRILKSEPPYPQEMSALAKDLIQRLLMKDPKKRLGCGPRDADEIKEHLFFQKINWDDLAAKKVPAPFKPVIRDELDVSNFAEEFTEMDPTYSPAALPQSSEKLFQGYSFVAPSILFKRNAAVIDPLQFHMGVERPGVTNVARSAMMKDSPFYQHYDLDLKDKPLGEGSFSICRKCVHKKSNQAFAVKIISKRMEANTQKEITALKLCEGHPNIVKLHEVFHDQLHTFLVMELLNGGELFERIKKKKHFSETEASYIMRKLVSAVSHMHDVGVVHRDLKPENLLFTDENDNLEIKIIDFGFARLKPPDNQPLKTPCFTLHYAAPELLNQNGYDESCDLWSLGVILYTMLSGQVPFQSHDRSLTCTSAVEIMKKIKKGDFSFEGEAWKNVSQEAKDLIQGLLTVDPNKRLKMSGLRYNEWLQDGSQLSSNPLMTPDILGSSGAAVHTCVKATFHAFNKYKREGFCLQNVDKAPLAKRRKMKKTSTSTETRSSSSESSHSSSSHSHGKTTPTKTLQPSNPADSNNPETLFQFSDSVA

[32] = biological target: Ribosomal protein S6 kinase alpha-3 (Homo sapiens) (UniProt P51812)
[33] = biological target: Ribosomal protein S6 kinase alpha-2 (Homo sapiens) (UniProt Q15349)
[34] = biological target: Proto-oncogene tyrosine-protein kinase Src (Homo sapiens) (UniProt P12931)
[35] = biological target: Tyrosine-protein kinase SYK (Homo sapiens) (UniProt P43405)
[36] = biological target: Serine/threonine-protein kinase TAO2 (Homo sapiens) (UniProt Q9UL54)
[37] = biological target: Angiopoietin-1 receptor (Homo sapiens) (UniProt Q02763)
[38] = biological target: Activated CDC42 kinase 1 (Homo sapiens) (UniProt Q07912)
[39] = biological target: Serine/threonine-protein kinase TNNI3K (Homo sapiens) (UniProt Q59H18)
[40] = biological target: Testis-specific serine/threonine-protein kinase 3 (Homo sapiens) (UniProt Q96PN8)
[41] = biological target: Tyrosine-protein kinase TXK (Homo sapiens) (UniProt P42681)
[42] = biological target: Serine/threonine-protein kinase ULK3 (Homo sapiens) (UniProt Q6PHR2)
[43] = biological target: Wee1-like protein kinase 2 (Homo sapiens) (UniProt P0C1S8)
Sequence of Wee1-like protein kinase 2 (Homo sapiens) (P0C1S8 whole entry, looked up): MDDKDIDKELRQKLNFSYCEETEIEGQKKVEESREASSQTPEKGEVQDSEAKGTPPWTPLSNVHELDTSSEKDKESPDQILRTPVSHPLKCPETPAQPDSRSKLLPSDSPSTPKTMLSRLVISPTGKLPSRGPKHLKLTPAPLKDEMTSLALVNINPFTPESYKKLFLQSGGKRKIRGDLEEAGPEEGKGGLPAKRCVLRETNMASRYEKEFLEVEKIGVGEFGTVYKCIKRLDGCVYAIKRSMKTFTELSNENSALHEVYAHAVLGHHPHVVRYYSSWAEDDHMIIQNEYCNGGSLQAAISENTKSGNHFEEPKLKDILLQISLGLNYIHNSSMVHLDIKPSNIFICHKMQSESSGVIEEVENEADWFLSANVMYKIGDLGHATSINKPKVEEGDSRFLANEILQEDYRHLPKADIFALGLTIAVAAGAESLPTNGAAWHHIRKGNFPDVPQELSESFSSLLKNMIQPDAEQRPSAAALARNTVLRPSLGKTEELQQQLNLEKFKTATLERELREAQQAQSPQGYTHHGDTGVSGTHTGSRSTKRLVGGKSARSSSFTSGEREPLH

[44] = biological target: Serine/threonine-protein kinase WNK4 (Homo sapiens) (UniProt Q96J92)
Sequence of Serine/threonine-protein kinase WNK4 (Homo sapiens) (Q96J92 whole entry): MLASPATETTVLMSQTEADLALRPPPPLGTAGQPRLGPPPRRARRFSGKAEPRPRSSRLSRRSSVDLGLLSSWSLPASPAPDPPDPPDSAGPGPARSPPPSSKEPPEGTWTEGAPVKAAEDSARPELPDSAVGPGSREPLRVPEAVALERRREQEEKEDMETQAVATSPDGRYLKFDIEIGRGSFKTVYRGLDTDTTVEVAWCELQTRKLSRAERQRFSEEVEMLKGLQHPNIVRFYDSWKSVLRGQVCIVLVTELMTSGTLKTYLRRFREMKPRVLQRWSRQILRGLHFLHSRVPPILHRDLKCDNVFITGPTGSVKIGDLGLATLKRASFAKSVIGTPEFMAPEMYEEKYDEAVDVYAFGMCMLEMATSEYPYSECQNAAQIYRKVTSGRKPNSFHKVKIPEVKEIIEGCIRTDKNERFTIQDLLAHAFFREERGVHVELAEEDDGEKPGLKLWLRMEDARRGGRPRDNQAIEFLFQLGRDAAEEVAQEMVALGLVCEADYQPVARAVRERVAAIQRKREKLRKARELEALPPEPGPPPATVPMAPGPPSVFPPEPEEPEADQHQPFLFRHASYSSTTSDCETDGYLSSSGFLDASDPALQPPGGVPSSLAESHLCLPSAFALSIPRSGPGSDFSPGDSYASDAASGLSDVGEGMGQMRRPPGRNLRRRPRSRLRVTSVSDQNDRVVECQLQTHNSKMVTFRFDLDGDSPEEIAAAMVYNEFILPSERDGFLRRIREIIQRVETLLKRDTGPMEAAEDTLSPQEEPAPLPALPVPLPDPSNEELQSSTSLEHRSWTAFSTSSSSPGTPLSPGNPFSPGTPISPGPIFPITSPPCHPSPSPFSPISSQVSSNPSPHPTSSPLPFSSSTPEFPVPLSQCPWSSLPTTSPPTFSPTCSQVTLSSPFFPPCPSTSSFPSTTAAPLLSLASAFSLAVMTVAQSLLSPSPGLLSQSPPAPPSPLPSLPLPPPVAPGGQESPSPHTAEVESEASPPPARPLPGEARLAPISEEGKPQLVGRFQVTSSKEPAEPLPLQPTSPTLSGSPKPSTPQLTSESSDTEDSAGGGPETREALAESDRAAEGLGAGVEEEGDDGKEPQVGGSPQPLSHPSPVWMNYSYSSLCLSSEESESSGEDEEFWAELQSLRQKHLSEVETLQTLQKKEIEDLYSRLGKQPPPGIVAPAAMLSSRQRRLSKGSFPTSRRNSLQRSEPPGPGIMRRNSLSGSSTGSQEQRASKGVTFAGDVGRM

[45] = biological target: Serine/threonine-protein kinase 25 (Homo sapiens) (UniProt O00506)

Measured: residual activity

c1ccc(N2CCN(Cc3nc4ccccc4[nH]3)CC2)nc1 [ABT-724]
inactive: [1] 100% | [2] 100% | [3] 100% | [4] 100% | [5] 100% | [6] 100% | [7] 100% | [8] 78% | [9] 88% | [10] 100% | [11] 100% | [12] 100% | [13] 86% | [14] 93% | [15] 100% | [16] 66% | [17] 100% | [18] 70% | [19] 100% | [20] 100% | [21] 100% | [22] 91% | [23] 100% | [24] 85% | [25] 100% | [26] 59% | [27] 69% | [28] 100% | [29] 86% | [30] 98% | [31] 100% | [32] 100% | [33] 99% | [34] 93% | [35] 100% | [36] 83% | [37] 94% | [38] 100% | [39] 100% | [40] 92% | [41] 95% | [42] 100% | [43] 100% | [44] 100% | [45] 94%

CSc1cccnc1N1CCN(Cc2nc3ccccc3[nH]2)CC1 [A-769]
inactive: [1] 74% | [2] 98% | [3] 92% | [4] 80% | [5] 100% | [6] 77% | [7] 99% | [8] 100% | [9] 100% | [10] 100% | [11] 100% | [12] 100% | [13] 100% | [14] 89% | [15] 100% | [16] 100% | [17] 100% | [18] 100% | [19] 98% | [20] 70% | [21] 100% | [22] 98% | [23] 100% | [24] 94% | [25] 95% | [26] 74% | [27] 100% | [28] 100% | [29] 81% | [30] 100% | [31] 100% | [32] 83% | [33] 100% | [34] 100% | [35] 100% | [36] 95% | [37] 100% | [38] 100% | [39] 100% | [40] 98% | [41] 100% | [42] 81% | [43] 100% | [44] 91% | [45] 100%
